Laboratory results taken from EP0831877B1, “METABOLIC EFFECTS OF CERTAIN GLUTATHIONE ANALOGS” (TELIK, INC., priority 1995, dated 1996).

How the values were obtained:
[1] = test system: HT-29 cell culture
[2] = in vitro half-life / metabolism in mouse blood; assay type: in vitro ADME
[3] = in vitro half-life in human blood; assay type: in vitro ADME
[4] = test system: HT-29 (human colon adenocarcinoma) cells; experiment: modified clonogenic assay, potentiation of chlorambucil cytotoxicity; assay type: cell-based
Protocol: HT-29 (human colon adenocarcinoma) cells were obtained from Dr. Roberto Ceriani (Cancer Research Fund of Contra Costa County, Walnut Creek, CA) and were used in log phase of growth unless otherwise specified. Chlorambucil (CMB) was obtained from Sigma (St. Louis, MO) and was dissolved in 100% ethanol. All GST inhibitors were dissolved in ethanol, DMSO, or water just prior to use. The same amount of solvent added to culture medium served as the vehicle control.
In a modified clonogenic assay for cytotoxicity, cells were suspended at 2 x 10^5 cells/ml in serum-free medium in the presence of vehicle or inhibitor. […] Cells were incubated for 2 hours, then varying doses of CMB were added. At the end of a second 2-hour incubation, cells were diluted to 7.5-10 x 10^3/ml in serum-containing medium and plated in quadruplicate at 200 µl/well in Microtest III microtiter plates.
Plates were incubated for 6 days and assayed by a modified methylene blue method. Briefly, cells were fixed with 1.25% glutaraldehyde in PBS then stained with 0.05% methylene blue in distilled water. Plates were washed several times in distilled water to remove unretained dye and retained dye was resolubilized in 0.03 N HCl. Plates were read at 650 nm in a Molecular Devices Vmax plate reader (Molecular Devices, Redwood City, CA). […] A dose modification factor (DMF), a measure of potentiation of cytotoxicity, was calculated for each inhibitor by dividing the IC50 value of CMB without inhibitor treatment by the IC50 value for CMB with inhibitor treatment.

- half-life compared with TER199 [2]: longer half-lives than TER199
- half-life, comparison of the three compounds [3]: approximately the same
Compound: CCNC(=O)C(N)CCC(=O)NC(CSCc1ccccc1)C(=O)N[C@@H](C(=O)OCC)c1ccccc1 (stereo partly drawn) [TER300, γE ethyl amide-C(Bz)-R-(-)-ϕG ethyl ester]
- rate of metabolism [1]: intermediate between that of TER199 and TER278
- rate of metabolism [2]: intermediate between that of TER199 and TER278
- amount required to achieve equivalent potentiation of chlorambucil, relative to TER199 [4]: Four times as much
- DMF for chlorambucil toxicity ([4]; HT-29, 50 µM, mean ±SD of three experiments): 1.45 ± 0.16
